# Tests used:
# AR [1] = conditions: CV-1 cells; reported by others; cited from earlier work
# AR [2] = assay: AR transactivation reporter assay (CAT/luciferase) (Example 3); format: cell-based, human
# Procedure: 21. […] Further adding GAL-DBD (lane 1 and 2) or GAL-DBD-ARA70N with wild type (lane 3 and 4) or mutant (lane 5-8) FXXLF motifs to the cells. (B) Effect of wild type and mutant FXXLF motifs ARA70N on AR transactivation in COS-1 cells. […] 0.5 ng SV40-Renila Luciferase was used as an internal control. Relative luciferase activity was calculated by dual luciferase system.
# 411. Human prostate cancer DU145 and PC-3 cells were maintained in Dulbecco's Minimum Essential Medium (DMEM) containing penicillin (25 U/ml), streptomycin (25 μg/ml), and 5% fetal calf serum (FCS). Human LNCaP cells were maintained in RPMI containing penicillin (25 U/ml), streptomycin (25 μg/ml), and 10% FCS. Transfections were performed using the calcium phosphate precipitation method, as previously described (Dynlacht et al. (1991) Cell 66, 563-576). Briefly, 4×10^5 cells were plated on 60-mm dishes 24 hours before transfection, and the medium was changed to DMEM with 5% charcoal-dextran stripped FCS (CS-FBS) one hour before transfection. Transfection medium contained a constant amount of reporter plasmid and indicated amounts of pSG5-receptor, ARA70, or pCMX-GAL fusion construct using pSG5 as a carrier to provide equal amounts of transfected DNA. […] After another 24 hours, the cells were harvested for chloramphenicol transferase (CAT) or luciferase assays. At least three independent experiments were carried out in each case. Superfect (Qiagen) was used for transfection in LNCaP cells. The transfection conditions followed the manufacturer's protocol. Cell extracts were prepared and assayed for CAT or luciferase activity (Promega) and normalized against β-galactosidase or Renilla luciferase activity as indicated. All data were the mean±SD results from three to six independent experiments.
# [3] = molecular target: T1, AR N-terminus and AR C-terminus (Homo sapiens, UniProt P10275); assay: Mammalian two-hybrid assay of AR N-C interaction in PC-3 cells; format: cell-based; conditions: DHT
# T1 construct: AR DBD plus LBD (GST-AR-DL); expressed in transfected cells; host or cells: PC-3 cells (human prostate cancer line)
# T1 sequence (P10275 555-920 limits assumed): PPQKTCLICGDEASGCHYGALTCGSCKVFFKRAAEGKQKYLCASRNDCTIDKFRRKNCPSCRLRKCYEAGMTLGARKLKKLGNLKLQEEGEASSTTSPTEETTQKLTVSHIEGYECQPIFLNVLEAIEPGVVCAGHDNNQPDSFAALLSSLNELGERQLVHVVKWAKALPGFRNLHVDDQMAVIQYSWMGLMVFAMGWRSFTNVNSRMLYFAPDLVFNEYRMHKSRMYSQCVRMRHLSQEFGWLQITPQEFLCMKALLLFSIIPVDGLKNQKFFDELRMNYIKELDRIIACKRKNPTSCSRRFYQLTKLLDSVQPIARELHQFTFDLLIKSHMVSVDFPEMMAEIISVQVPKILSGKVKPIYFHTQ
# T1 sequence (P10275 1-559 partner limits assumed): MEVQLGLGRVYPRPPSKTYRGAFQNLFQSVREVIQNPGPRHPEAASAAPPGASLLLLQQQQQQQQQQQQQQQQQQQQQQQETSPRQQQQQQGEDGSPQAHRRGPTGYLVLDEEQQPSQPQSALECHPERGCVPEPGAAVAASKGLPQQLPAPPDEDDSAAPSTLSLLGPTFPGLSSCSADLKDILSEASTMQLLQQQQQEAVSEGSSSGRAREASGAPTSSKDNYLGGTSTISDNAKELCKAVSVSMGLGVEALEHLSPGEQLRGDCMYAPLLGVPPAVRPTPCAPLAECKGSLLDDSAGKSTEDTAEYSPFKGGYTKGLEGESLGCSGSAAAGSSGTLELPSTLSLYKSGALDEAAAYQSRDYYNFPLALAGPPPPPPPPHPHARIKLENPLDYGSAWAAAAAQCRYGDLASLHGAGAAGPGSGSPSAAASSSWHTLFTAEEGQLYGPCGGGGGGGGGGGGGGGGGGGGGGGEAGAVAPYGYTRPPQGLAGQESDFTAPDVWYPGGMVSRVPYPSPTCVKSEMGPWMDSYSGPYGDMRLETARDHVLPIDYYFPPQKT
# Procedure: 44. […] PC-3 cells were transfected with 30 ng plasmids expressing Gal4(DBD)-AR-DL, VP16 or VP16-ARN combined with 1.5 μg pSG5, pSG5-bSV, -ARA55, or -SRC-1α as indicated. The reporter plasmid pG5-Luc (0.5 μg) and control plasmid pRL-Luc (1 ng) were transfected to every sample. The assay was carried out as described in FIG. 29C.
# 474. Mouse myoblast cell line (C2C12), human prostate cancer cell lines (PC-3 and DU145), and monkey kidney fibroblast cell line (COS-1) were maintained in Dulbecco's minimum essential medium (DMEM) containing penicillin (25 units/ml), streptomycin ([…]), and 10% fetal bovine serum (FBS). In mammalian two-hybrid assay, transfections were performed using the calcium phosphate precipitation method as described previously (15). Briefly, 1.5-3×10^5 cells were plated on 35-mm dishes for 24 h, and the medium was changed to DMEM containing 10% charcol-dextran stripped FBS (CD-FBS) 2 h before transfection. Cells were transfected with 0.5 μg plasmids expressing Gal4(DBD) and VP-16 fusion proteins as indicated. Gal4 response element controlled Firefly luciferase expression plasmid, pG5-Luc, was used as reporter gene. A Renilla luciferase expression plasmid pRL-SV40 was used as an internal control for transfection efficiency. The total amount of DNA was adjusted to 5 μg with pCMX-VP16 vectors. […]
# Chain of AR (P10275 whole entry, the tested form may be a part): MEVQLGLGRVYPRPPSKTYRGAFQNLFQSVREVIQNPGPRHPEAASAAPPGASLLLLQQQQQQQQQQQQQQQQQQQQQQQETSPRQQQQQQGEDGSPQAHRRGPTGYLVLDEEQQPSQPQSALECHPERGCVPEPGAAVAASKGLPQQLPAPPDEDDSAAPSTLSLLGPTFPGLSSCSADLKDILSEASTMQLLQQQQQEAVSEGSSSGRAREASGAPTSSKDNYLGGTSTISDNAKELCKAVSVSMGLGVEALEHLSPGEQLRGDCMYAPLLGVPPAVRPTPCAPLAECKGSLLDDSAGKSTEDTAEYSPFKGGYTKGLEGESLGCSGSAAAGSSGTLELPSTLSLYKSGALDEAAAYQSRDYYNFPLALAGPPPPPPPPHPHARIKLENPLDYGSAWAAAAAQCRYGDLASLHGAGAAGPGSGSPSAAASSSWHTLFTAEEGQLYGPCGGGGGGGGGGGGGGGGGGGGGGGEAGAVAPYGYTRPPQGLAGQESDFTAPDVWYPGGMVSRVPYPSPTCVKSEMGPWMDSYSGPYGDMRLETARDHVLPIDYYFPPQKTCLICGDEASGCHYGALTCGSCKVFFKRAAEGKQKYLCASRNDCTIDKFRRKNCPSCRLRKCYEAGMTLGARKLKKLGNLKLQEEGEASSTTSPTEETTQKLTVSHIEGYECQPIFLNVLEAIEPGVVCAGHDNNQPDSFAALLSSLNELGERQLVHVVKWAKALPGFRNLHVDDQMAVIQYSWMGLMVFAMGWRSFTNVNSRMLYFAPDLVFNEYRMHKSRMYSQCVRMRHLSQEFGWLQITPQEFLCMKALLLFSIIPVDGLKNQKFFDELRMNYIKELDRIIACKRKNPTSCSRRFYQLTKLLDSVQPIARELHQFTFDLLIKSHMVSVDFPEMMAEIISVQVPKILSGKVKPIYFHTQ
enhancement of AR transactivation (AR [2]; COS-1 cells) [fold],enhancement of AR transactivation (AR [2]; CV-1 cells) [fold],"enhancement of AR transactivation (AR [2]; DU145 cells, depending on the ratio of AR to ARA70)",enhancement of AR transactivation (AR [2]; PC-3 cells) [fold],effect on AR N-C interaction [3],Substance,enhancement of AR activity (AR [1])
8,8,8-10 fold,6,,"ARA70: ligand-enhanced AR coregulator, full length ARA70",2-3 fold
,,,,mild suppressive effect,"SV: supervillin, 205 kDa actin binding protein; bovine SV (a.a. 1-1792) used in reporter assays",
